Measurements reported in PubChem BioAssay (NCI).
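Interpolation was linear, between the two tested concentrations surrounding the appropriate level; five concentrations were tested over 48 hours in 96-well plates. Definition used: TGI = concentration required for complete inhibition of growth.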 Where a SMILES comes first, the peptide text is derived from it. [ ]: non-standard residue; d: D form. The star is where a group is joined. X28 = COC1=CC(=O)N(C(=O)[C@@H](O*)C(C)C)[C@H]1Cc1ccccc1; NMeL = CN[C@@H](CC(C)C)C(=O)O; Hexanoyl = CCCCCC(=O)*

What was measured:
Test in all cases: inhibition of tumour cell growth, NCI panel, 48 h
NCI/ADR-RES ovarian = test system: NCI/ADR-RES ovarian
SW-620 colon = test system: SW-620 colon
786-0 renal = test system: 786-0 renal
MDA-N = test system: MDA-N
MDA-MB-231 breast = test system: MDA-MB-231 breast
NCI-H23 lung = test system: NCI-H23 lung
T-47D breast = test system: T-47D breast
CCRF-CEM leukemia = test system: CCRF-CEM leukemia
BT-549 breast = test system: BT-549 breast
MOLT-4 leukemia = test system: MOLT-4 leukemia
HL-60(TB) leukemia = test system: HL-60(TB) leukemia
IGROV1 ovarian = test system: IGROV1 ovarian

Row | SMILES | TGI (NCI/ADR-RES ovarian) [µM] | TGI (SW-620 colon) [µM] | TGI (786-0 renal) [µM] | TGI (MDA-N) [µM] | TGI (MDA-MB-231 breast) [µM] | TGI (NCI-H23 lung) [µM] | TGI (T-47D breast) [µM] | TGI (CCRF-CEM leukemia) [µM] | TGI (BT-549 breast) [µM] | TGI (MOLT-4 leukemia) [µM] | TGI (HL-60(TB) leukemia) [µM] | TGI (IGROV1 ovarian) [µM]
1 | Cc1cc2nc3c(C#N)c(-c4ccccc4)/c(=C\Nc4cccc(C(F)(F)F)c4)c(=O)n3c2cc1C | > 100 | > 100 | > 100 | > 100 | > 100 | > 100 | > 100 | > 100 | > 100 |  |  | 
2 | OC1(c2ccc(Cl)cc2)c2ccccc2C2=Nc3ccccc3CN21 (centres undefined) | 98.8 | > 100 | 25.8 | > 100 | > 100 | > 100 | > 100 | > 100 | > 100 | > 100 | > 75.5 | > 81.3
3 | C(=N\NC1=NCCCN1)/c1ccc(-c2cn3cc(/C=N/NC4=NCCCN4)ccc3n2)cc1 | > 100 | > 100 | > 100 | > 100 | > 100 | > 100 | > 100 | > 66.2 | > 100 | 11.8 | > 58.1 | > 100
4 | c1ccc(COc2nc3ccc(C45CC6CC(CC(C6)C4)C5)cc3[nH]2)cc1 | > 54.4 | > 100 | > 100 | 97 | > 80.9 | > 56.6 | 34.1 | > 100 | > 100 | > 66.7 | 43.7 | > 100
5 | CC(=O)OCc1ccc(-c2nc(C#N)c(N)o2)o1 | > 10 | > 10 | > 10 | > 10 | > 10 | > 10 | > 10 | > 10 | > 10 | > 10 | > 10 | > 10
6 | CCCCCC(=O)N[C@H](C(=O)N[C@H](C(=O)N(C)[C@@H](CC(C)C)C(=O)N1CCC[C@H]1C(=O)N1CCC[C@H]1C(=O)O[C@H](C(=O)N1C(=O)C=C(OC)[C@@H]1Cc1ccccc1)C(C)C)C(C)C)C(C)C (Hexanoyl-VV[NMeL]PP-X28) | > 100 | > 100 | > 100 | > 100 | > 100 | > 100 | > 100 | > 100 | > 100 | > 100 | 6.2 | > 100
7 | COc1ccc(OC)c2c1C[C@@H]1C(C#N)N3[C@H](Cc4c(OC)ccc(OC)c4[C@@H]3C)C(=O)N1[C@H]2C (some centres undefined) | > 100 | 8.41 | 7.72 | 22 | 7.56 | 19.6 | 15.1 | 6.75 | 4.09 | 15.9 | 6.18 | 16.8
8 | CCN(CC)P1(=S)Oc2ccc3ccccc3c2-c2c(ccc3ccccc23)O1 | > 100 | > 100 | > 100 | > 100 | > 100 | > 100 | > 100 | > 100 | > 100 | > 100 | > 100 | > 100
9 | COC(=O)c1c(C)nc(C)c(N=O)c1-c1ccccc1C(F)(F)F | 44.5 | 30.1 | 31.5 | 43.6 | 32.3 | 48.5 | 39.5 | > 100 | 33.6 | > 100 | > 100 | 33.9
10 | CCOC(=O)C1(C(=O)OCC)C[C@H]2CON=C2[C@@H]1c1ccc(C(F)(F)F)cc1 | > 100 | > 100 | > 100 | > 100 | > 100 | > 100 | 94.3 | 23.7 | > 100 | > 100 | > 100 | 28.9
11 | COCOc1cc(OC)ccc1C=O | 52.1 | > 100 | > 100 | 23.7 | > 100 | > 100 | > 100 | > 100 | > 100 | > 100 | > 100 | > 100
12 | CCC(C#N)N(Cc1cccc(CN(C(C)=O)C(C#N)CC)c1)C(C)=O (centres undefined) | > 100 | > 100 | > 100 | > 100 | > 100 | > 100 | > 100 | > 100 | > 100 | > 100 | > 100 | > 100
13 | COc1ccccc1NC(=S)N/N=C(/c1ccccc1)c1ccccn1 | 11.3 | 18.4 | 18.7 | 21.5 | 11.4 | 24.3 | 27.2 | 9.54 | 23 | 0.403 | 2.18 | 17.6
14 | CC1OC(OC2C(CO)OC(O[C@H]3CC[C@@]4(C)C(=CC[C@H]5[C@@H]6C[C@@H]7O[C@](O)(CC[C@@H](C)COC8OC(CO)C(O)C(O)C8O)[C@@H](C)[C@@H]7[C@@]6(C)CC[C@@H]54)C3)C(OC3OC(C)C(O)C(O)C3O)C2O)C(O)C(O)C1O (some centres undefined) | 4.22 | 2.97 | 3.89 | 8.67 | 14.8 | 10.3 | 17.9 | 6.38 | 11.1 | 3.71 | 4.14 | 
15 | CCOC(=O)c1cc(-c2ccc(OC)c(OC)c2)cn1C | > 10 |  | > 10 | > 10 | > 10 | > 10 | > 10 | > 10 | > 10 | > 10 | > 10 | > 10
16 | C=C1C(=O)OC2C(C)C3C=CC(=O)[C@@]3(C)C(OC(=O)/C(C)=C/C)C1[C@@H]2OC(C)=O (some centres undefined) | 0.73 | 0.694 | 0.63 | 0.738 | 0.678 | 1.29 | 2.13 | > 28.7 | 0.682 |  |  | 2.05
17 | C=C(C)C1CC2=C(C(=O)OC)C=C(O2)C(C(=C)C)[C@@H]2OC(=O)/C(=C\C1O)[C@H]2N(C)C (some centres undefined) | 26 | 30.3 | 21 | 25.8 | 43.8 | 28.8 | 45.9 | 5.4 | 24.3 | > 22.7 | > 24.2 | 20.9
18 | CCc1nnc2sc(-c3ccc(-c4ccc(Cl)cc4Cl)o3)nn12 | > 100 | > 100 | > 100 | > 100 | > 100 | > 100 | > 100 | > 100 | > 100 | > 100 | > 100 | > 100
